The values below come from PMC4491662, “Synthesis, Biological Evaluation and Molecular Modeling of Substituted Indeno[1,2-b]indoles as Inhibitors of Human Protein Kinase CK2” (Pharmaceuticals, 2015).

The test system of data set [1] is tumor cell lines (5637, SISO, KYSE-70, MCF-7, LCLC, A427). The settings on record: cited from earlier work.
Another data set relates to HEK293T. Nature of the data set: Cytotoxicity WST-1 assay on HEK293T. It counts as cell-based, human. The settings on record: Homo sapiens, HEK-293T, 96 h, read-out: EC50 in µM ± SD. The text has this: (§1) Four cell lines of various origins were used to evaluate the cytotoxicity of our target compounds 5–7. The selected cell lines were (i) NIH-3T3, a cell line originally established from the primary mouse embryonic fibroblast cells, (ii) MEF, primary mouse embryonic fibroblasts (used at their early passages) prepared as previously described, (iii) WI-38, a human diploid cell line derived from normal embryonic lung tissue, and (iv) HEK293T, a transformed variant of the human embryonic kidney cell line HEK293. After 96 h, cytotoxicity was evaluated using the WST-1 assay. […] Seventeen compounds were evaluated on the cell lines and then compared to TBB used as a standard. […]. All cells were grown in DMEM medium supplemented with 10% fetal calf serum, glutamine (2 mM), penicillin (100 U/mL), and streptomycin (50 μg/mL) at 37 °C under a humidified 5% CO2 atmosphere (Gibco). The assays were performed in sterile 96-wells microtiter plates (Falcon). Cells were plated at 500 (NIH-3T3), 750 (WI-38) or 1000 (MEF; HEK293T) cells/100 µL/well. Drug solutions (10 μL per well) of appropriate concentration (prepared by dilution in the culture medium from 2 mM stock acetonitrile solution) were added 24 h after cell seeding. For ellagic acid and emodin, DMSO was used to prepare the stock solution. After 96 h, the cytotoxicity is evaluated using the Cell Proliferation Reagent WST-1 following the procedure described by the manufacturer (Roche Applied Science). The drugs were assayed at 10, 5, 1, 0.2 and 0.04 µM in triplicate. The vehicle was used as control. The experiments were repeated three times.
For orientation: Tetrazolium dyes change colour on reduction, which living cells bring about.

For the next data set, the system named is WI-38. Nature of the data set: Cytotoxicity WST-1 assay on WI-38. The settings on record: Homo sapiens, WI-38, 96 h, read-out: EC50 in µM ± SD. Format: cell-based, human.
From the text: as §1

The test system of the next data set is NIH-3T3. Nature of the data set: Cytotoxicity WST-1 assay on NIH-3T3. It counts as cell-based, mouse. As to conditions: Mus musculus, NIH3T3, 96 h, read-out: EC50 in µM ± SD.
From the text: as §1

Data set [2] addresses T1, human CK2 holoenzyme (Homo sapiens, UniProt P68400). Nature of the data set: biochemical. As to conditions: average percent inhibition at 10 µM.
A short description of data set [3]: Cytotoxicity WST-1 assay, statements over the four cell lines. As to conditions: mouse (NIH-3T3, MEF) and human (WI-38, HEK293T), WST-1, cell line not specified, read-out: EC50 (cytotoxic activity, over the cell lines). Format: cell-based.
From the text: as §1

The subject of a further data set is MEF. The data set is described as follows: Cytotoxicity WST-1 assay on MEF. Format: cell-based, mouse. As to conditions: Mus musculus, 96 h, read-out: EC50 in µM ± SD.
From the text: as §1

In data set [4] the target is T1, human CK2 holoenzyme. As to conditions: read-out: IC50 ± SD, assay buffer with 100 µM ATP.

T1 sequence (P68400 whole entry): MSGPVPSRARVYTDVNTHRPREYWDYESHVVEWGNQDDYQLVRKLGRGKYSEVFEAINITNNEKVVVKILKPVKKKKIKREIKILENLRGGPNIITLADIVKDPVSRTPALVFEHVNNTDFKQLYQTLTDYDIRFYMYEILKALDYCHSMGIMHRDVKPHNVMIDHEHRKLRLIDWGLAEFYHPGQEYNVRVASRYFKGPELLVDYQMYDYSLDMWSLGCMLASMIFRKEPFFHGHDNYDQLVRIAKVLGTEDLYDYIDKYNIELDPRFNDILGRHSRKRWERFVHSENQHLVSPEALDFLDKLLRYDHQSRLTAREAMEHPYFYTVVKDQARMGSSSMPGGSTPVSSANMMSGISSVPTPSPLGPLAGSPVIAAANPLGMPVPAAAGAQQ
T1 sequence (P67870 whole entry partner): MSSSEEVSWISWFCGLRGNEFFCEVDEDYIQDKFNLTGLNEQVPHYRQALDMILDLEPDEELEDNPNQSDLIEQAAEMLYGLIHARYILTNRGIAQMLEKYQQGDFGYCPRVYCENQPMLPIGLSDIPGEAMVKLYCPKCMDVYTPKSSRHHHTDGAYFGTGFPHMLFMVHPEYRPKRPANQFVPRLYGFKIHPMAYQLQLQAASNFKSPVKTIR

Regarding `CC(C)n1c2c(=O)ccc(=O)c2c2c(=O)c3ccccc3c21` [Compound 7h, 5-isopropyl-5H-indeno[1,2-b]indole-6,9,10-trione], the “growth of tumor cell lines” value in data set [1] was “inhibited the growth”.
Usually EC50 stands for the concentration at which the effect is half-maximal. For orientation: melting point means the temperature, or range, at which the solid turns liquid. As usually defined, the inhibition is how much of the control response was suppressed. Read a low inhibition as a response near the control. In turn, `CC(C)n1c2c(=O)c(-c3ccccc3)cc(=O)c2c2c(=O)c3ccccc3c21` [Compound 7c, 5-Isopropyl-7-phenyl-5H-indeno[1,2-b]indole-6,9,10-trione] came in with a melting point of 230.4 °C. For the same molecule, the EC50 with HEK293T was 1.6 ± 0.2 µM. For the same molecule, the EC50 with WI-38 is greater than 10 µM. In addition, the EC50 in the data set on NIH-3T3 is greater than 10 µM. The molecule further had an inhibition at 10 µM against human CK2 holoenzyme [2] of 41%. Further, in data set [3], the EC50 at 96 h was 0.4 to 8.8 µM. The EC50 in the data set on MEF is greater than 10 µM.
In general, IC50 refers to the midpoint of a concentration-inhibition curve. Take `Cc1cc(=O)c2c(c1=O)c1c(=O)c3ccccc3c1n2C(C)C` [Compound 7f, 5-Isopropyl-8-methyl-5H-indeno[1,2-b]indole-6,9,10-trione]: the EC50 in the data set with HEK293T was 4.4 ± 2.2 µM; in the data set on WI-38 it was greater than 10 µM; in the data set on NIH-3T3 it was greater than 10 µM; with MEF, greater than 10 µM. On human CK2 holoenzyme [2], this molecule returned an inhibition at 10 µM of 72%. Moreover, in [3], the EC50 at 96 h fell in the range of 0.4 to 8.8 µM. Besides, the IC50 on human CK2 holoenzyme [4] came out at 4.9 ± 0.54 µM.
Molecule `CC(C)n1c2c(=O)c(-c3ccc(F)cc3)cc(=O)c2c2c(=O)c3ccccc3c21` [Compound 7d, 7-(4-Fluorophenyl)-5-isopropyl-5H-indeno[1,2-b]indole-6,9,10-trione] registered a melting point of 258.1 °C. In the data set on HEK293T, the EC50 turned out to be 4.9 ± 2.4 µM. Also, the EC50 in the data set with WI-38 was greater than 10 µM. The EC50 in the data set on NIH-3T3 is greater than 10 µM. Also, 10 µM produced 42% inhibition on human CK2 holoenzyme [2]. The EC50 at 96 h in [3] was 0.4 to 8.8 µM. In addition, the EC50 in the data set on MEF stood at 8.5 ± 0.4 µM.
Consider `CC(C)c1cc(=O)c2c3c(=O)c4ccccc4c3n(C(C)C)c2c1=O` [Compound 7b, 5,7-Diisopropyl-5H-indeno[1,2-b]indole-6,9,10-trione], for which the melting point was found to be 230.4 °C. In addition, the EC50 in the data set with HEK293T was greater than 10 µM. Further, the EC50 in the data set with WI-38 is greater than 10 µM. Further, the EC50 in the data set on NIH-3T3 was greater than 10 µM. At human CK2 holoenzyme [2], this molecule displayed an inhibition at 10 µM of 60%. Besides, the EC50 in the data set with MEF is greater than 10 µM. Further, the IC50 at human CK2 holoenzyme [4] was 4.76 ± 0.29 µM.
On to `O=c1oc2c(O)c(O)cc3c(=O)oc4c(O)c(O)cc1c4c23` [ellagic acid, reference compound], for which the EC50 in the data set on HEK293T, in the data set with WI-38, in the data set on NIH-3T3 and in the data set with MEF was greater than 10 µM in each case. In addition, the inhibition at 10 µM on human CK2 holoenzyme [2] worked out at 95%. Moreover, the IC50 on human CK2 holoenzyme [4] came out at 0.04 ± 0.007 µM.
